Measurements taken from patent publication US7030140B2, “Substituted benzimidazole antiviral agents” (Bristol-Myers Squibb Company, priority 1998, dated 2006).
Structures can show the parent of a compound that is named as a salt.

What was measured:
[1] = tested on: respiratory syncytial virus Long strain; test: microbe, parasite or virus in culture; type: cell-based; settings: for % cell protection from RSV at 4 µg/mL: human respiratory syncytial virus, 96 h, 4 μg/mL of compound, RSV Long strain-infected HEp-2 cells, compound added 1 hour post infection, 4 days, MTT
in vitro = settings: human
[2] = tested on: HEp-2 (ATCC CCL 23) cells

SMILES: CC(N)CCn1c(Cn2nnc3ccccc32)nc2ccccc21 (stereo not drawn) [Example 40, 3-(2-Benzotriazol-1-ylmethyl-benzimidazol-1-yl)-1-methyl-propylamine]
- % cell protection from RSV at 4 µg/mL [1]: 96%
- CC50 at 4 days (in vitro): 8.5 µM

SMILES: OCCn1c(Cn2nnc3ccccc32)nc2ccccc21 [Example 31, 2-(2-Benzoatrizol-1-ylmethyl-benzimidazol-1-yl)-ethanol]
- % cell protection from RSV at 4 µg/mL [1]: 48%
- CC50 at 4 days (in vitro): 21 µM

SMILES: CC(C)(C)C(O)Cn1c(Cn2nnc3ccccc32)nc2ccccc21 (stereo not drawn) [Example 27, 1-(2-Benzotriazol-1-ylmethyl-1-H-benzimidazol-1-yl)-3,3-dimethylbutan-2-ol]
- % cell protection from RSV at 4 µg/mL [1]: 44%
- CC50 at 4 days (in vitro): 117 µM

SMILES: CC(O)CCn1c(Cn2nnc3ccccc32)nc2ccccc21 (stereo not drawn) [Example 38]
- % cell protection from RSV at 4 µg/mL [1]: 100%
- CC50 at 4 days (in vitro): > 309 µM

SMILES: CCCCn1c(Cn2nnc3ccccc32)nc2ccccc21 [Example 19, 1-(1-Butyl-1H-benzimidazol-2-ylmethyl)-1H-benzotriazole]
- % cell protection from RSV at 4 µg/mL [1]: 95%
- CC50 at 4 days (in vitro): 12 µM

SMILES: c1ccc(CCn2c(Cn3nnc4ccccc43)nc3ccccc32)cc1 [Example 48, 1-[1-(2-Phenethyl)-1-H-benzimidazol-2-ylmethyl)-1H-benzotriazole]
- % cell protection from RSV at 4 µg/mL [1]: 95%
- CC50 at 4 days (in vitro): 2.6 µM

SMILES: CC(CCn1c(Cn2nnc3ccccc32)nc2ccccc21)=NO [Example 39]
- % cell protection from RSV at 4 µg/mL [1]: 100%
- CC50 at 4 days (in vitro): > 33 µM

SMILES: CC(CCn1c(Cn2nnc3ccccc32)nc2ccccc21)CC(C)(C)C (stereo not drawn) [Example 23, 1-[1-(3,5,5-Trimethyl-hexyl)-1H-benzimidazol-2-ylmethyl]-1H-benzotriazole]
- % cell protection from RSV at 4 µg/mL [1]: 98%
- CC50 at 4 days (in vitro): 59 µM

SMILES: CNC(=O)Cn1c(Cn2nnc3ccccc32)nc2ccccc21 [Example 35, 2-(2-Benzotriazol-1-ylmethyl-benzimidazol-1-yl)-N-methyl acetamide]
- % cell protection from RSV at 4 µg/mL [1]: 58%
- CC50 at 4 days (in vitro): 230 µM

SMILES: CC(C)CCn1c(Cn2nc3ccccc3n2)nc2ccccc21 [Example 61, 2-[1-(3-methylbutyl)-1H-benzimidazol-2-ylmethyl]-2H-benzotriazole Dihydrochloride]
- % cell protection from RSV at 4 µg/mL [1]: 78%
- CC50 at 4 days (in vitro): 27 µM

SMILES: CS(=O)(=O)CCn1c(Cn2nnc3ccccc32)nc2ccccc21 [Example 26, 1-[1-(2-Methylsulfonyl-ethyl)-1H-benzimidazol-2-ylmethyl]-1H-benzotriazole]
- % cell protection from RSV at 4 µg/mL [1]: 100%
- CC50 at 4 days (in vitro): 200 µM

SMILES: C[S+]([O-])CCn1c(Cn2nnc3ccccc32)nc2ccccc21 (stereo not drawn) [Example 25, 1-[1-(2-Methylsulfinyl-ethyl)-1H-benzimidazol-2-ylmethyl]-1H-benzotriazole]
- % cell protection from RSV at 4 µg/mL [1]: 100%
- CC50 at 4 days (in vitro): 56 µM

SMILES: c1cncc(Cn2c(Cn3nnc4ccccc43)nc3ccccc32)c1 [Example 47, 1-[1-(Pyridin-3-yl-methyl)-1H-benzimidazol-2-ylmethyl]-1H-benzotriazole]
- % cell protection from RSV at 4 µg/mL [1]: 40%
- CC50 at 4 days (in vitro): 250 µM

SMILES: [N-]=[N+]=NCCn1c(Cn2nnc3ccccc32)nc2ccccc21 [Example 33, 1-[1-(2-Azido-ethyl)-1-H-benzimidazol-2-ylmethyl)-1H-benzotriazole]
- % cell protection from RSV at 4 µg/mL [1]: 82%
- CC50 at 4 days (in vitro): 75 µM

SMILES: c1ccc(Cn2c(Cn3nnc4ccccc43)nc3ccccc32)cc1 [Example 46, 1-[(1-Phenylmethyl-1H-benzimidazol)-2-ylmethyl]-1H-benzotriazole]
- % cell protection from RSV at 4 µg/mL [1]: 53%
- CC50 at 4 days (in vitro): 97 µM

SMILES: N=C(N)CCn1c(Cn2nnc3ccccc32)nc2ccccc21 [Example 45, 3-(2-Benzotriazol-1-ylmethyl-benzimidazol-1-yl)-1-imino-1propyl-amine Diacetate]
- % cell protection from RSV at 4 µg/mL [1]: 74%
- CC50 at 4 days (in vitro): 6.3 µM

SMILES: O=C(Cn1c(Cn2nnc3ccccc32)nc2ccccc21)c1ccccc1 [Example 49, 2-[(2-Benzotriazol-1-ylmethyl)-benzimidazol-1-yl]-1-phenyl-ethanone]
- % cell protection from RSV at 4 µg/mL [1]: 76%
- CC50 at 4 days (in vitro): 18 µM

SMILES: CC(C)=CCn1c(Cn2nnc3ccccc32)nc2ccccc21 [Example 21, 1-[1-(3-Methyl-2-butenyl)-1H-benzimidazol-2-ylmethyl]-1H-benzotriazole]
- % cell protection from RSV at 4 µg/mL [1]: 98%
- CC50 at 4 days (in vitro): 69 µM

SMILES: CC(C)CCn1c(Cn2nnc3ccccc32)nc2ccccc21 [Example 20, 1-[1-(3-Methylbutyl)-1H-benzimidazol-2-ylmethyl)-1H-benzotriazole]
- % cell protection from RSV at 4 µg/mL [1]: 87%
- CC50 at 4 days (in vitro): 40 µM

SMILES: CC(C)CCCn1c(Cn2nnc3ccccc32)nc2ccccc21 [Example 22, 1-[1-(4-Methylpentyl)-1H-benzimidazol-2-ylmethyl]-1H-benzotriazole]
- % cell protection from RSV at 4 µg/mL [1]: 75%
- CC50 at 4 days (in vitro): 15 µM

SMILES: NC(=O)CCn1c(Cn2nnc3ccccc32)nc2ccccc21 [Example 41, 3-(2-Benzotriazol-1-ylmethyl-1-H-benzimidazol-1-yl)-propionamide]
- % cell protection from RSV at 4 µg/mL [1]: 75%
- CC50 at 4 days (in vitro): 4.3 µM

SMILES: NC(=O)c1ncn([C@@H]2O[C@H](CO)[C@@H](O)[C@H]2O)n1 [Ribavirin, reference compound]
- cell protection ([1]; control compound at 2.5 μg/mL (corresponding to 10.2 μM)): 100%

SMILES: CC(=O)CCn1c(Cn2nnc3ccccc32)nc2ccccc21 [Example 37]
- % Cell protection at 4 μg/mL [1]: 100%
- CC50 [2]: 59 µM

SMILES: CSCCn1c(Cn2nnc3ccccc32)nc2ccccc21 [Example 24, 1-[1-(2-Methylthio-ethyl)-1H-benzimidazol-2-ylmethyl]-1H-benzotriazole]
- % cell protection from RSV at 4 µg/mL [1]: 100%
- CC50 at 4 days (in vitro): 165 µM

SMILES: OC(Cn1c(Cn2nnc3ccccc32)nc2ccccc21)c1ccccc1 (stereo not drawn) [Example 50, 2-[(2-Benzotriazol-1-ylmethyl)-benzimidazol-1-yl]-1-phenyl-ethanol]
- % cell protection from RSV at 4 µg/mL [1]: 94%
- CC50 at 4 days (in vitro): 36 µM

SMILES: O=C(O)CCn1c(Cn2nnc3ccccc32)nc2ccccc21 [Example 43]
- % cell protection from RSV at 4 µg/mL [1]: 82%
- CC50 at 4 days (in vitro): > 309 µM

SMILES: CS(=O)(=O)OCCn1c(Cn2nnc3ccccc32)nc2ccccc21 [Example 32, Methanesulfonic Acid, 2-(2-benzotriazol-1-ylmethyl-benzimidazol-1-yl)-ethyl ester]
- % cell protection from RSV at 4 µg/mL [1]: 60%
- CC50 at 4 days (in vitro): 71 µM

SMILES: CC(C)(C)OC(=O)CCn1c(Cn2nnc3ccccc32)nc2ccccc21 [Example 42]
- % cell protection from RSV at 4 µg/mL [1]: 100%
- CC50 at 4 days (in vitro): 168 µM

SMILES: c1ccc2c(c1)nnn2Cc1nc2ccccc2n1CC1OCCO1 [Example 28]
- % cell protection from RSV at 4 µg/mL [1]: 61%
- CC50 at 4 days (in vitro): 29 µM

SMILES: N/C(CCn1c(Cn2nnc3ccccc32)nc2ccccc21)=N\O [Example 44, N-[3-(2-Benzotriazol-1-ylmethyl-benzimidazol-1-yl)-1-imino-propyl)-hydroxyamine]
- % cell protection from RSV at 4 µg/mL [1]: 91%
- CC50 at 4 days (in vitro): 16 µM

SMILES: c1ccc2c(c1)nnn2Cc1nc2ccccc2n1CCC1OCCO1 [Example 29]
- % cell protection from RSV at 4 µg/mL [1]: 98%
- CC50 at 4 days (in vitro): 185 µM

SMILES: O=CCCn1c(Cn2nnc3ccccc32)nc2ccccc21 [Example 30, 1-[(2-Benzotriazol-1-ylmethyl)-1-H-benzimidazol-1-yl]-propionaldehyde]
- % cell protection from RSV at 4 µg/mL [1]: 90%
- CC50 at 4 days (in vitro): 108 µM
